≈ marks a conversion by molar mass, not a printed value.
Legend:
CaCl2 = experiment: Antifungal sensitivity testing (broth microdilution MIC); type: cell-based; settings: 96-well broth microdilution
Experimental: Antifungal Sensitivity Testing. Minimum inhibitory concentrations (MICs) were determined in flat bottom, 96-well plate format using a modified broth microdilution protocol as previously described (Singh et al., PLoS Pathog. 5, e1000532 (2009); LaFayette et al., PLoS Pathog. 6, 79-80 (2010)). Compounds were formulated in dimethyl sulfoxide (DMSO, Sigma-Aldrich Co.); fluconazole was dissolved in sterile ddH2O. Each compound was tested in duplicate in at least two independent experiments. To test for fungicidal activity, cultures from MIC plates were spotted on YPD agar plates using a spotter (Frogger, V&P Scientific, Inc.). Plates were photographed after 24 h of incubation at 30° C.

[1] = biological target: Hsp90 Nuclear Binding Domain (NBD) (Candida albicans (strain SC5314 / ATCC MYA-2876) (Yeast), UniProt P46598); experiment: Surface Plasmon Resonance (SPR) binding, C. albicans Hsp90 NBD; settings: biotinylated Hsp90 NBD on streptavidin chip, 25° C., 1:1 binding model
Chain of Hsp90 Nuclear Binding Domain (NBD) (Candida albicans (strain SC5314 / ATCC MYA-2876) (Yeast), UniProt P46598) (P46598 1-218 limits assumed): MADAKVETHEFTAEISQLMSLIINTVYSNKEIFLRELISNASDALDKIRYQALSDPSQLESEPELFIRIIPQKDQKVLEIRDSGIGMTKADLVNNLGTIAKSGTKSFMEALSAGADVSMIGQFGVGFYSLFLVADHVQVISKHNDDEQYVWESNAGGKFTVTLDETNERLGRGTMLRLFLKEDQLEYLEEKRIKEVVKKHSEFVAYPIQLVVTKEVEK
Experimental: (§1) Surface Plasmon Resonance (SPR) Experiments. SPR experiments were performed on a Biacore S200 instrument at 25° C. Biotinylated Hsp90 Nuclear Binding Domain (NBD) was diluted to 40 μg/mL and immobilized on a streptavidin chip (Sensor Chip SA, GE Healthcare) at a density of 2000-2500 response units (RU) on the biosensor surface.
(§2) Recombinant Hsp90 NBDs were expressed and purified as previously described (Whitesell et al., Nat Commun 10, 402 (2019)) with the following modification; Hsp90 NBD expression constructs were modified to encode a C-terminal AviTag for site-specific on-column biotinylation with a BirA biotin-ligase kit (Avidity LLC; BirA-500). Stock protein solutions in 50% glycerol were stored at −20° C. until dilution into relevant buffers. Binding experiments were done in HBS-P (0.01 M HEPES, pH 7.4, 0.15 M NaCl, 0.005% v/v surfactant P20, GE Healthcare) with 2% DMSO at flow rate of 40 μL/min. Test compounds (dilution series) were injected with a 60 s association time and 600 s dissociation time. Resulting sensorgrams were analyzed with a fit to a 1:1 binding model, using BIA evaluation software.

[2] = biological target: Hsp90 Nuclear Binding Domain (NBD) (Aspergillus fumigatus, UniProt P40292); experiment: Surface Plasmon Resonance (SPR) binding, A. fumigatus Hsp90 NBD; settings: biotinylated Hsp90 NBD on streptavidin chip, 25° C., 1:1 binding model; NB undefined
Chain of Hsp90 Nuclear Binding Domain (NBD) (Aspergillus fumigatus, UniProt P40292) (P40292 whole entry, looked up, the tested form may be a part): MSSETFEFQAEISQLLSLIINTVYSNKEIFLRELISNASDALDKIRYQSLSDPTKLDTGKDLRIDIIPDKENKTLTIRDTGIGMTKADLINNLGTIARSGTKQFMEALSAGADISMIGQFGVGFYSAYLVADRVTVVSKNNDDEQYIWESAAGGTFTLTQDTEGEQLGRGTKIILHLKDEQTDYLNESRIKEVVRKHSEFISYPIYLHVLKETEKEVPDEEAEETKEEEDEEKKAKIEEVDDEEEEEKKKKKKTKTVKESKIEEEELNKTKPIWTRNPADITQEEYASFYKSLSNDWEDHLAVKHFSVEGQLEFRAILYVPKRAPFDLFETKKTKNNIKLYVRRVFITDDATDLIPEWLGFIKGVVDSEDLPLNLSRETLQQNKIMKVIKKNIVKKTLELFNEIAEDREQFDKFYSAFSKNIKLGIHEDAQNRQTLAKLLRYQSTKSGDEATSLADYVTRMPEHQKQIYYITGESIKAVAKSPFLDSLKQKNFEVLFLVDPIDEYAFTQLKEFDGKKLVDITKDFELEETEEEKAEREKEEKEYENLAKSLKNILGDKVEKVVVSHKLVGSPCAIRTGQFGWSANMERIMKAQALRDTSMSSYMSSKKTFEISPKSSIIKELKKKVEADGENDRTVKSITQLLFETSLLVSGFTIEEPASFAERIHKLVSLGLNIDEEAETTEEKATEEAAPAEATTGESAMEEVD
Experimental: as §1, §2

HepG2 cells = experiment: Mammalian cell toxicity (Cell Titer-Glo); type: cell-based
Experimental: Mammalian Cell Toxicity. HepG2 cells were seeded overnight at 500 cells/well in 384-well plate, then incubated with compounds (10-point concentration titration) for 48 h. Cell Titer-Glo® reagent ([…]) was added to each well and after 10-minute incubation at room temperature the luminescent signal was measured using an Envision plate reader (Perkin Elmer).

CC1(NC(=O)c2cc3c(nc(N)c(=O)n3-c3ccc4c(c3)N(c3ccccc3)CCO4)s2)CCN(C[C@](O)(Cn2cncn2)c2ccc(F)cc2F)CC1 [Compound I-53, (S)-3-amino-N-(1-(2-(2,4-difluorophenyl)-2-hydroxy-3-(1H-1,2,4-triazol-1-yl)propyl)-4-methylpiperidin-4-yl)-2-oxo-1-(4-phenyl-3,4-dihydro-2H-benzo[b][1,4]oxazin-6-yl)-1,2-dihydrothieno[2,3-b]pyrazine-6-carboxamide]
MIC50 (CaCl2; Table 4): 1.5 µM (≈ 1.13 µg/mL)
MIC50 (CaCl2; Table 6): 1.5 µM (≈ 1.13 µg/mL)
Kd [1]: 1.3 nM
Kd [2]: 23.6 nM
HepG2 MIC50 (HepG2 cells; Table 5, 48 h incubation): 4 µM
HepG2 MIC50 (HepG2 cells; Table 6, 48 h incubation): 4 µM

CC(F)(F)COC(=O)N1Cc2nc(N)nc(-c3c(Cl)cc(Cl)cc3OCCC(O)(Cn3cncn3)c3ccc(F)cc3F)c2C1 (stereo not drawn) [Compound I-115, 2,2-difluoropropyl-2-amino-4-(2,4-dichloro-6-(3-(2,4-difluorophenyl)-3-hydroxy-4-(1H-1,2,4-triazol-1-yl)butoxy)phenyl)-5,7-dihydro-6H-pyrrolo[3,4-d]pyrimidine-6-carboxylate]
MIC50 (CaCl2; Table 4): 6.5 µM (≈ 4.36 µg/mL)
MIC50 (CaCl2; Table 6): 6.5 µM (≈ 4.36 µg/mL)
Kd [1]: 1200 nM
Kd [2]: 1170 nM
HepG2 MIC50 (HepG2 cells; Table 6, 48 h incubation): >20 µM

Nc1nc2sc(C(=O)NC3CCN(CC4COC(Cn5cncn5)(c5ccc(F)cc5F)C4)CC3)cc2n(-c2ccc3c(c2)N(c2ccccc2)CCO3)c1=O (stereo not drawn) [Compound I-32, N-(1-((5-((1H-1,2,4-triazol-1-yl)methyl)-5-(2,4-difluorophenyl)tetrahydrofuran-3-yl)methyl)piperidin-4-yl)-3-amino-2-oxo-1-(4-phenyl-3,4-dihydro-2H-benzo[b][1,4]oxazin-6-yl)-1,2-dihydrothieno[2,3-b]pyrazine-6-carboxamide]
MIC50 (CaCl2; Table 4): 2.5 µM (≈ 1.95 µg/mL)
MIC50 (CaCl2; Table 6): 2.5 µM (≈ 1.95 µg/mL)
Kd [1]: 3.6 nM
Kd [2]: 50.5 nM
HepG2 MIC50 (HepG2 cells; Table 6, 48 h incubation): 8.2 µM

Nc1nc2sc(CN[C@H]3CCCN(C[C@](O)(Cn4cncn4)c4ccc(F)cc4F)C3)cc2n(-c2ccc3c(c2)N(c2ccccc2)CCO3)c1=O [Compound I-130, 3-amino-6-((((S)-1-((S)-2-(2,4-difluorophenyl)-2-hydroxy-3-(1H-1,2,4-triazol-1-yl)propyl)piperidin-3-yl)amino)methyl)-1-(4-phenyl-3,4-dihydro-2H-benzo[b][1,4]oxazin-6-yl)thieno[2,3-b]pyrazin-2(1H)-one]
MIC50 (CaCl2; Table 4): 1.75 µM (≈ 1.27 µg/mL)
MIC50 (CaCl2; Table 6): 1.75 µM (≈ 1.27 µg/mL)
Kd [1]: 1580 nM
Kd [2]: 2190 nM
HepG2 MIC50 (HepG2 cells; Table 5, 48 h incubation): >20 µM
HepG2 MIC50 (HepG2 cells; Table 6, 48 h incubation): >20 µM

Nc1nc2sc(CNCC3CCN(C[C@](O)(Cn4cncn4)c4ccc(F)cc4F)CC3)cc2n(-c2ccc3c(c2)N(c2ccccc2)CCO3)c1=O [Compound I-131, (S)-3-amino-6-((((1-(2-(2,4-difluorophenyl)-2-hydroxy-3-(1H-1,2,4-triazol-1-yl)propyl)piperidin-4-yl)methyl)amino)methyl)-1-(4-phenyl-3,4-dihydro-2H-benzo[b][1,4]oxazin-6-yl)thieno[2,3-b]pyrazin-2(1H)-one]
MIC50 (CaCl2; Table 4): 1.25 µM (≈ 0.925 µg/mL)
MIC50 (CaCl2; Table 6): 1.25 µM (≈ 0.925 µg/mL)
HepG2 MIC50 (HepG2 cells; Table 5, 48 h incubation): 9 µM
HepG2 MIC50 (HepG2 cells; Table 6, 48 h incubation): 9 µM

Nc1nc2sc(CNC3CCN(CC(O)(Cn4cncn4)c4ccc(F)cc4F)CC3)cc2n(-c2ccc3c(c2)N(c2ccccc2)CCO3)c1=O (stereo not drawn) [Compound I-47, 3-amino-6-(((1-(2-(2,4-difluorophenyl)-2-hydroxy-3-(1H-1,2,4-triazol-1-yl)propyl)piperidin-4-yl)amino)methyl)-1-(4-phenyl-3,4-dihydro-2H-benzo[b][1,4]oxazin-6-yl)thieno[2,3-b]pyrazin-2(1H)-one]
MIC50 (CaCl2; Table 4): 1 µM (≈ 0.726 µg/mL)
MIC50 (CaCl2; Table 6): 1 µM (≈ 0.726 µg/mL)
Kd [1]: 289 nM
Kd [2]: 550 nM
HepG2 MIC50 (HepG2 cells; Table 5, 48 h incubation): 4.4 µM
HepG2 MIC50 (HepG2 cells; Table 6, 48 h incubation): 4.4 µM

Nc1nc2sc(CNCC3CCN(CC(O)(Cn4cncn4)c4ccc(F)cc4F)CC3)cc2n(-c2ccc3c(c2)N(c2ccccc2)CCO3)c1=O (stereo not drawn) [Compound I-67, 3-amino-6-((((1-(2-(2,4-difluorophenyl)-2-hydroxy-3-(1H-1,2,4-triazol-1-yl)propyl)piperidin-4-yl)methyl)amino)methyl)-1-(4-phenyl-3,4-dihydro-2H-benzo[b][1,4]oxazin-6-yl)thieno[2,3-b]pyrazin-2(1H)-one]
MIC50 (CaCl2; Table 4): 2.25 µM (≈ 1.66 µg/mL)
MIC50 (CaCl2; Table 6): 2.25 µM (≈ 1.66 µg/mL)
Kd [1]: 402 nM
Kd [2]: 503 nM
HepG2 MIC50 (HepG2 cells; Table 6, 48 h incubation): 4.7 µM

Nc1nc2sc(CNC3CCN(CCC(O)(Cn4cncn4)c4ccc(F)cc4F)CC3)cc2n(-c2ccc3c(c2)N(c2ccccc2)CCO3)c1=O (stereo not drawn) [Compound I-72, 3-amino-6-(((1-(3-(2,4-difluorophenyl)-3-hydroxy-4-(1H-1,2,4-triazol-1-yl)butyl)piperidin-4-yl)amino)methyl)-1-(4-phenyl-3,4-dihydro-2H-benzo[b][1,4]oxazin-6-yl)thieno[2,3-b]pyrazin-2(1H)-one]
MIC50 (CaCl2; Table 4): 7.5 µM (≈ 5.55 µg/mL)
MIC50 (CaCl2; Table 6): 7.5 µM (≈ 5.55 µg/mL)
Kd [1]: 121 nM
Kd [2]: 197 nM
HepG2 MIC50 (HepG2 cells; Table 6, 48 h incubation): 4.6 µM

Nc1nc2sc(CNC(=O)C3CCN(CC(O)(Cn4cncn4)c4ccc(F)cc4F)CC3)cc2n(-c2ccc3c(c2)N(c2ccccc2)CCO3)c1=O (stereo not drawn) [Compound I-140, N-((3-amino-2-oxo-1-(4-phenyl-3,4-dihydro-2H-benzo[b][1,4]oxazin-6-yl)-1,2-dihydrothieno[2,3-b]pyrazin-6-yl)methyl)-1-(2-(2,4-difluorophenyl)-2-hydroxy-3-(1H-1,2,4-triazol-1-yl)propyl)piperidine-4-carboxamide]
MIC50 (CaCl2; Table 4): 6.3 µM (≈ 4.75 µg/mL)
Kd [1]: 746 nM
Kd [2]: 434 nM

Nc1nc2scc(C(=O)NC3CCN(C[C@](O)(Cn4cncn4)c4ccc(F)cc4F)CC3)c2n(-c2ccc3c(c2)N(c2ccccc2)CCO3)c1=O [Compound I-35, (S)-3-amino-N-(1-(2-(2,4-difluorophenyl)-2-hydroxy-3-(1H-1,2,4-triazol-1-yl)propyl)piperidin-4-yl)-2-oxo-1-(4-phenyl-3,4-dihydro-2H-benzo[b][1,4]oxazin-6-yl)-1,2-dihydrothieno[2,3-b]pyrazine-7-carboxamide]
MIC50 (CaCl2; Table 4): 25 µM (≈ 18.5 µg/mL)
Kd [1]: 1950 nM
Kd [2]: 1840 nM

Nc1nc2sc(CN[C@@H]3CCN(CC[C@@](O)(Cn4cncn4)c4ccc(F)cc4F)C3)cc2n(-c2ccc3c(c2)N(c2ccccc2)CCO3)c1=O [Compound I-123, 3-amino-6-((((R)-1-((S)-3-(2,4-difluorophenyl)-3-hydroxy-4-(1H-1,2,4-triazol-1-yl)butyl)pyrrolidin-3-yl)amino)methyl)-1-(4-phenyl-3,4-dihydro-2H-benzo[b][1,4]oxazin-6-yl)thieno[2,3-b]pyrazin-2(1H)-one]
MIC50 (CaCl2; Table 4): 11.5 µM (≈ 8.35 µg/mL)
Kd [1]: 145 nM
Kd [2]: 238 nM

Nc1nc2sc(CN[C@H]3[C@@H]4CN(C[C@](O)(Cn5cncn5)c5ccc(F)cc5F)C[C@@H]43)cc2n(-c2ccc3c(c2)N(c2ccccc2)CCO3)c1=O [Compound I-125, 3-amino-6-((((1R,5S,6R)-3-((S)-2-(2,4-difluorophenyl)-2-hydroxy-3-(1H-1,2,4-triazol-1-yl)propyl)-3-azabicyclo[3.1.0]hexan-6-yl)amino)methyl)-1-(4-phenyl-3,4-dihydro-2H-benzo[b][1,4]oxazin-6-yl)thieno[2,3-b]pyrazin-2(1H)-one]
MIC50 (CaCl2; Table 4): 5.75 µM (≈ 4.16 µg/mL)
Kd [1]: 575 nM
Kd [2]: 886 nM

Nc1nc2sc(C(=O)Nc3ccc(CN4CCN(CC(O)(Cn5cncn5)c5ccc(F)cc5F)CC4)cc3)cc2n(-c2ccc3c(c2)N(c2ccccc2)CCO3)c1=O (stereo not drawn) [Compound I-9, 3-amino-N-(4-((4-(2-(2,4-difluorophenyl)-2-hydroxy-3-(1H-1,2,4-triazol-1-yl)propyl)piperazin-1-yl)methyl)phenyl)-2-oxo-1-(4-phenyl-3,4-dihydro-2H-benzo[b][1,4]oxazin-6-yl)-1,2-dihydrothieno[2,3-b]pyrazine-6-carboxamide]
MIC50 (CaCl2; Table 4): 10 µM (≈ 8.31 µg/mL)
Kd [1]: 136 nM
Kd [2]: 3870 nM

CC1(NCc2cc3c(nc(N)c(=O)n3-c3ccc4c(c3)N(c3ccccc3)CCO4)s2)CCN(CC(O)(Cn2cncn2)c2ccc(F)cc2F)CC1 (stereo not drawn) [Compound I-117, 3-amino-6-(((1-(2-(2,4-difluorophenyl)-2-hydroxy-3-(1H-1,2,4-triazol-1-yl)propyl)-4-methylpiperidin-4-yl)amino)methyl)-1-(4-phenyl-3,4-dihydro-2H-benzo[b][1,4]oxazin-6-yl)thieno[2,3-b]pyrazin-2(1H)-one]
MIC50 (CaCl2; Table 4): 3 µM (≈ 2.22 µg/mL)
Kd [1]: 461 nM
Kd [2]: 298 nM

Reference: patent US20240424113A1, “CONJUGATES COMPRISING ANTIFUNGALS AND HEAT SHOCK PROTEIN 90 (HSP90) INHIBITORS AND METHODS OF USE THEREOF” (Bright Angel Therapeutics Inc., priority 2021, published 2024)
